According to PubChem BioAssay (NCI):
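All cell lines were grown in 96-well plates and treated with compound for 48 hours. TGI denotes the concentration required for complete inhibition of growth.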

Experiments:
Assay in all cases: NCI-60 cell line screen, 48 h
M14 melanoma = system: M14 melanoma
786-0 renal = system: 786-0 renal
OVCAR-3 ovarian = system: OVCAR-3 ovarian
SNB-78 CNS = system: SNB-78 CNS
MALME-3M melanoma = system: MALME-3M melanoma
XF 498 CNS = system: XF 498 CNS
UACC-257 melanoma = system: UACC-257 melanoma
HCT-116 colon = system: HCT-116 colon
LXFL 529 NSCLC = system: LXFL 529 NSCLC
MOLT-4 leukemia = system: MOLT-4 leukemia
DMS 273 small cell lung = system: DMS 273 small cell lung
IGROV1 ovarian = system: IGROV1 ovarian
SNB-75 CNS = system: SNB-75 CNS
HOP-92 NSCLC = system: HOP-92 NSCLC
A549 NSCLC = system: A549 NSCLC
HL-60(TB) leukemia = system: HL-60(TB) leukemia
SN12C renal = system: SN12C renal
UO-31 renal = system: UO-31 renal
EKVX NSCLC = system: EKVX NSCLC
NCI-H226 lung = system: NCI-H226 lung
SF-268 CNS = system: SF-268 CNS
U251 CNS = system: U251 CNS
OVCAR-8 ovarian = system: OVCAR-8 ovarian
SF-295 CNS = system: SF-295 CNS
K-562 leukemia = system: K-562 leukemia
RPMI-8226 leukemia = system: RPMI-8226 leukemia
OVCAR-4 ovarian = system: OVCAR-4 ovarian
DMS 114 small cell lung = system: DMS 114 small cell lung
ACHN renal = system: ACHN renal
COLO 205 colon = system: COLO 205 colon
HOP-18 NSCLC = system: HOP-18 NSCLC
SK-MEL-28 melanoma = system: SK-MEL-28 melanoma
NCI-H23 lung = system: NCI-H23 lung
CCRF-CEM leukemia = system: CCRF-CEM leukemia
SK-OV-3 ovarian = system: SK-OV-3 ovarian
HT29 colon = system: HT29 colon
SNB-19 CNS = system: SNB-19 CNS
HCT-15 colon = system: HCT-15 colon
DLD-1 colon = system: DLD-1 colon
HCC-2998 colon = system: HCC-2998 colon
NCI-H522 lung = system: NCI-H522 lung
KM20L2 colon = system: KM20L2 colon
LOX IMVI melanoma = system: LOX IMVI melanoma
SW-620 colon = system: SW-620 colon
NCI-H460 lung = system: NCI-H460 lung
SF-539 CNS = system: SF-539 CNS
SK-MEL-2 melanoma = system: SK-MEL-2 melanoma
TK-10 renal = system: TK-10 renal
CAKI-1 renal = system: CAKI-1 renal
SR leukemia = system: SR leukemia
M19-MEL melanoma = system: M19-MEL melanoma
UACC-62 melanoma = system: UACC-62 melanoma
OVCAR-5 ovarian = system: OVCAR-5 ovarian
RXF 393 renal = system: RXF 393 renal
HOP-62 NSCLC = system: HOP-62 NSCLC
A498 renal = system: A498 renal

## O=S(Cc1ccccn1)c1nc2ccccc2nc1-c1ccccc1 (stereo not given)
M14 melanoma
  TGI: > 100 µM
786-0 renal
  TGI: > 100 µM
OVCAR-3 ovarian
  TGI: > 100 µM
SNB-78 CNS
  TGI: 94 µM
MALME-3M melanoma
  TGI: 97.7 µM
XF 498 CNS
  TGI: 47.3 µM
UACC-257 melanoma
  TGI: 82 µM
HCT-116 colon
  TGI: > 100 µM
LXFL 529 NSCLC
  TGI: > 100 µM
MOLT-4 leukemia
  TGI: > 100 µM
DMS 273 small cell lung
  TGI: > 100 µM
IGROV1 ovarian
  TGI: 73.3 µM
SNB-75 CNS
  TGI: 79.6 µM
HOP-92 NSCLC
  TGI: 83.3 µM
A549 NSCLC
  TGI: > 100 µM
HL-60(TB) leukemia
  TGI: 80.7 µM
SN12C renal
  TGI: > 100 µM
UO-31 renal
  TGI: 90.4 µM
EKVX NSCLC
  TGI: 73.7 µM
NCI-H226 lung
  TGI: 76.2 µM
SF-268 CNS
  TGI: > 100 µM
U251 CNS
  TGI: > 100 µM
OVCAR-8 ovarian
  TGI: > 100 µM
SF-295 CNS
  TGI: > 100 µM
K-562 leukemia
  TGI: > 100 µM
RPMI-8226 leukemia
  TGI: 91.3 µM
OVCAR-4 ovarian
  TGI: > 100 µM
DMS 114 small cell lung
  TGI: 69.6 µM
ACHN renal
  TGI: > 100 µM
COLO 205 colon
  TGI: 32.8 µM
HOP-18 NSCLC
  TGI: > 100 µM
SK-MEL-28 melanoma
  TGI: > 100 µM
NCI-H23 lung
  TGI: > 100 µM
CCRF-CEM leukemia
  TGI: > 100 µM
SK-OV-3 ovarian
  TGI: > 100 µM
HT29 colon
  TGI: > 100 µM
SNB-19 CNS
  TGI: > 100 µM

## CCc1cccc(C)c1NC(=O)C(=O)Cc1nc2ccccc2o1
M14 melanoma
  TGI: > 100 µM
HCT-15 colon
  TGI: > 100 µM
DLD-1 colon
  TGI: > 100 µM
786-0 renal
  TGI: > 100 µM
OVCAR-3 ovarian
  TGI: > 100 µM
SNB-78 CNS
  TGI: > 100 µM
MALME-3M melanoma
  TGI: > 100 µM
XF 498 CNS
  TGI: > 100 µM
UACC-257 melanoma
  TGI: > 100 µM
HCT-116 colon
  TGI: > 100 µM
LXFL 529 NSCLC
  TGI: > 100 µM
MOLT-4 leukemia
  TGI: > 100 µM
HCC-2998 colon
  TGI: > 100 µM
NCI-H522 lung
  TGI: > 100 µM
IGROV1 ovarian
  TGI: > 100 µM
KM20L2 colon
  TGI: > 100 µM
HOP-92 NSCLC
  TGI: > 100 µM
HL-60(TB) leukemia
  TGI: > 100 µM
LOX IMVI melanoma
  TGI: > 100 µM
SN12C renal
  TGI: > 100 µM
UO-31 renal
  TGI: > 100 µM
SW-620 colon
  TGI: > 100 µM
NCI-H460 lung
  TGI: > 100 µM
SF-539 CNS
  TGI: > 100 µM
SK-MEL-2 melanoma
  TGI: > 100 µM
EKVX NSCLC
  TGI: > 100 µM
NCI-H226 lung
  TGI: > 100 µM
TK-10 renal
  TGI: > 100 µM
SF-268 CNS
  TGI: > 100 µM
U251 CNS
  TGI: > 100 µM
OVCAR-8 ovarian
  TGI: > 100 µM
SF-295 CNS
  TGI: > 100 µM
K-562 leukemia
  TGI: > 100 µM
RPMI-8226 leukemia
  TGI: > 100 µM
CAKI-1 renal
  TGI: > 100 µM
OVCAR-4 ovarian
  TGI: > 100 µM
SR leukemia
  TGI: > 100 µM
DMS 114 small cell lung
  TGI: > 100 µM
ACHN renal
  TGI: > 100 µM
M19-MEL melanoma
  TGI: > 100 µM
COLO 205 colon
  TGI: > 100 µM
UACC-62 melanoma
  TGI: > 100 µM
OVCAR-5 ovarian
  TGI: > 100 µM
HOP-18 NSCLC
  TGI: > 100 µM
SK-MEL-28 melanoma
  TGI: > 100 µM
RXF 393 renal
  TGI: > 100 µM
NCI-H23 lung
  TGI: > 100 µM
CCRF-CEM leukemia
  TGI: > 100 µM
HOP-62 NSCLC
  TGI: > 100 µM
SK-OV-3 ovarian
  TGI: > 100 µM
A498 renal
  TGI: > 100 µM
HT29 colon
  TGI: > 100 µM
SNB-19 CNS
  TGI: > 100 µM
